Key:
Test in all cases: KINOMEscan competition binding
Settings in all cases: compound 10.0 µM
BMP2K (human) = BMP2K (human) (UniProt Q9NSY1)
ULK2 (human) = ULK2 (human) (UniProt Q8IYT8)
[1] = system: FLT3 (human), P36888 [D835Y]
CHEK1 (human) = CHEK1 (human) (UniProt O14757)
NEK5 (human) = NEK5 (human) (UniProt Q6P3R8)
[2] = system: ABL1 (human), P00519 [F317I]
FES (human) = FES (human) (UniProt P07332)
STK10 (human) = STK10 (human) (UniProt O94804)
FER (human) = FER (human) (UniProt P16591)
FRK (human) = FRK (human) (UniProt P42685)
TNK2 (human) = TNK2 (human) (UniProt Q07912)
GAK (human) = GAK (human) (UniProt O14976)
[3] = biological target: TYK2 JH2 pseudokinase (human) (UniProt P29597)
SLK (human) = SLK (human) (UniProt Q9H2G2)
TTK (human) = TTK (human) (UniProt P33981)
ULK1 (human) = ULK1 (human) (UniProt O75385)
[4] = system: EGFR (human), P00533 [A750P; 747-749 del]
[5] = system: ABL1 (human), P00519 [F317L]
ABL1 (human), P00519 [F317L], sequence (P00519 whole entry F317L, looked up): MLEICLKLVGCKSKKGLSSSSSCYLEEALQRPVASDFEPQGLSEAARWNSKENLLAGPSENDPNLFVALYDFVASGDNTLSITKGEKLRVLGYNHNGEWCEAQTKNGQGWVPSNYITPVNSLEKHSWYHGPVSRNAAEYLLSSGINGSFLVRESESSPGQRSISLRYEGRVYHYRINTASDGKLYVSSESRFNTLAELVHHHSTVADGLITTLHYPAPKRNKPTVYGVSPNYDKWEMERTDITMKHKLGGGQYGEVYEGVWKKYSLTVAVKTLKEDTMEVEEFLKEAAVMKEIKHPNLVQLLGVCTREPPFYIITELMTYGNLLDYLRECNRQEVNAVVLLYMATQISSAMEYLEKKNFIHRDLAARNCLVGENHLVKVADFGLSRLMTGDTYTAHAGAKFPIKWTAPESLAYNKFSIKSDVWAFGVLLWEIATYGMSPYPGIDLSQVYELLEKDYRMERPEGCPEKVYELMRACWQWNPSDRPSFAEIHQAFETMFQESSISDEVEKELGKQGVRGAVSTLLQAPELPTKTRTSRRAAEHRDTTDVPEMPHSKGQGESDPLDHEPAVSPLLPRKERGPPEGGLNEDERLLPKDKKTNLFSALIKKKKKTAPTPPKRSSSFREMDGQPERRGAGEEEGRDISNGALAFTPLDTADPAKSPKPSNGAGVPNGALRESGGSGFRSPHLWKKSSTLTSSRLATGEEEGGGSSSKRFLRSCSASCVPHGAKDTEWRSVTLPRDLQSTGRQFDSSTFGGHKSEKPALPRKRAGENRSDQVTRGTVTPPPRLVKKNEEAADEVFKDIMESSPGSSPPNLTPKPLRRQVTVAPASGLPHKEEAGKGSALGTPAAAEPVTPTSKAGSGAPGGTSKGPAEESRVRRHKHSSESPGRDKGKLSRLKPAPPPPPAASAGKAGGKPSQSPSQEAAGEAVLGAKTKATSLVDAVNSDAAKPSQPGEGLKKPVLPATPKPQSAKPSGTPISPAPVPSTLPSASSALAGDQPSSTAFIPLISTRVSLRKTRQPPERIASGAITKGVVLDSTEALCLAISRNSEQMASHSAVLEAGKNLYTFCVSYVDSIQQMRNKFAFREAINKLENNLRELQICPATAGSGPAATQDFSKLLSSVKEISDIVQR

PIP4K2B (human) = PIP4K2B (human) (UniProt P78356)
DAPK3 (human) = DAPK3 (human) (UniProt O43293)
PTK2B (human) = PTK2B (human) (UniProt Q14289)
STK33 (human) = STK33 (human) (UniProt Q9BYT3)
STK33 (human), sequence (Q9BYT3 whole entry, looked up): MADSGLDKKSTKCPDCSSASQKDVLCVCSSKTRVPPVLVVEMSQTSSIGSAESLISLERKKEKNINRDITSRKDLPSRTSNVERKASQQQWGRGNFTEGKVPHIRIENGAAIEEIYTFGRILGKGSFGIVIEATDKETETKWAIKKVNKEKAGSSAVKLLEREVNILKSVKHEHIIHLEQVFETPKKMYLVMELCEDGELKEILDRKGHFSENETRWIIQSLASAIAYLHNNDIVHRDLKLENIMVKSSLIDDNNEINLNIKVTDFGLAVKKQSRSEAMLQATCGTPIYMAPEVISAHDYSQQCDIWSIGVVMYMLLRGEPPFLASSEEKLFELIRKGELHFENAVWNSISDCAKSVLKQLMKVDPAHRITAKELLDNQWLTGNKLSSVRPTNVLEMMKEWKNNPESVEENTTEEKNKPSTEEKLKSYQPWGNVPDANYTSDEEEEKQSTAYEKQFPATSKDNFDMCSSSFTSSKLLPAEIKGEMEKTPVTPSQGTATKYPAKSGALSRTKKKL

[6] = system: FLT3 (human), P36888 [D835H]
NEK9 (human) = NEK9 (human) (UniProt Q8TD19)
CAMKK2 (human) = CAMKK2 (human) (UniProt Q96RR4)
RPS6KA6 KD2 (human) = RPS6KA6 KD2 (human) (UniProt Q9UK32)
RPS6KA6 KD2 (human), sequence (Q9UK32 whole entry, looked up): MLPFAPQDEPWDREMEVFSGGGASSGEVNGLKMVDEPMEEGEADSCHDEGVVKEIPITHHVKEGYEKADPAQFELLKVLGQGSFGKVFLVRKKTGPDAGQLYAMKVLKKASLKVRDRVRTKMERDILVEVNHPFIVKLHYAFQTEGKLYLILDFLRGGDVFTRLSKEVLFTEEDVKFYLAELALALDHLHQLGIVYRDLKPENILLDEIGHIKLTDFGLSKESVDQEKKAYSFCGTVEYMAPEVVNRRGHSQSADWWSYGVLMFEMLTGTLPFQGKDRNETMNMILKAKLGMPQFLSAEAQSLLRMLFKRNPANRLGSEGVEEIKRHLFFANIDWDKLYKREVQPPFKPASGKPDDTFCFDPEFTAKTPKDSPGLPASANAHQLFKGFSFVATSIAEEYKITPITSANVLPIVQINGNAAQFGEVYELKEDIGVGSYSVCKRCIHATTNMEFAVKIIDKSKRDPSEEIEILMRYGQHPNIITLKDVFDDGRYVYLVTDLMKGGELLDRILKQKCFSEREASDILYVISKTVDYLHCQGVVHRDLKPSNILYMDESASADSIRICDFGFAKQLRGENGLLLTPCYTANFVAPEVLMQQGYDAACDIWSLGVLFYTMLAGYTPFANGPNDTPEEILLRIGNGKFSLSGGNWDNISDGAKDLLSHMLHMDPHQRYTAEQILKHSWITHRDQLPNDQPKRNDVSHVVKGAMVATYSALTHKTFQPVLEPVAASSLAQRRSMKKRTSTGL

MERTK (human) = MERTK (human) (UniProt Q12866)
MERTK (human), sequence (Q12866 whole entry, looked up): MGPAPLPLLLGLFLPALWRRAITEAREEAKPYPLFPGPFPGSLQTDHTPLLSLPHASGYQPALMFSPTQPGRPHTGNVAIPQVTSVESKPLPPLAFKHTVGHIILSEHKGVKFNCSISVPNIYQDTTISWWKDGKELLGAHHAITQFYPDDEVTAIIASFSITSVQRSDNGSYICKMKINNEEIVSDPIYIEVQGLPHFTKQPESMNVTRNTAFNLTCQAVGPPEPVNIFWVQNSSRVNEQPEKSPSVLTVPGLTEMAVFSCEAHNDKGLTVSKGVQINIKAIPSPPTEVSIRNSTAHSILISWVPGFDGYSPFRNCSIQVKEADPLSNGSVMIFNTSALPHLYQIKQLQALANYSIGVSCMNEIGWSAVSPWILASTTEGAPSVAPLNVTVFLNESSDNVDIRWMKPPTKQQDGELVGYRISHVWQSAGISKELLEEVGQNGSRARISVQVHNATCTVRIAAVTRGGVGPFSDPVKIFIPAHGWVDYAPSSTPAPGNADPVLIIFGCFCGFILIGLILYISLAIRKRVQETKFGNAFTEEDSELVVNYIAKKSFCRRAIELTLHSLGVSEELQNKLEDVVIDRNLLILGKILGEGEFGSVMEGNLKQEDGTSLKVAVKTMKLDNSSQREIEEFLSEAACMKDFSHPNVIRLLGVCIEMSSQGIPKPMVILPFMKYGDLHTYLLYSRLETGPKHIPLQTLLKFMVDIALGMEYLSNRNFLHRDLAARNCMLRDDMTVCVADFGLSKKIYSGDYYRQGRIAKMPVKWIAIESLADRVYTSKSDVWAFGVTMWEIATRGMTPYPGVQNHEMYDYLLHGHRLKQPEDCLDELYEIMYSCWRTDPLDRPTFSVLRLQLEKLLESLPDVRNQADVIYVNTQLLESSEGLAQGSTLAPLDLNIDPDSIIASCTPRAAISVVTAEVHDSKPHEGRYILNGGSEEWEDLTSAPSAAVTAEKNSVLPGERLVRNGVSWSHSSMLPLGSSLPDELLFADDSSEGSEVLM

PLK3 (human) = PLK3 (human) (UniProt Q9H4B4)
RPS6KA1 KD2 (human) = RPS6KA1 KD2 (human) (UniProt Q15418)
RPS6KA1 KD2 (human), sequence (Q15418 whole entry, looked up): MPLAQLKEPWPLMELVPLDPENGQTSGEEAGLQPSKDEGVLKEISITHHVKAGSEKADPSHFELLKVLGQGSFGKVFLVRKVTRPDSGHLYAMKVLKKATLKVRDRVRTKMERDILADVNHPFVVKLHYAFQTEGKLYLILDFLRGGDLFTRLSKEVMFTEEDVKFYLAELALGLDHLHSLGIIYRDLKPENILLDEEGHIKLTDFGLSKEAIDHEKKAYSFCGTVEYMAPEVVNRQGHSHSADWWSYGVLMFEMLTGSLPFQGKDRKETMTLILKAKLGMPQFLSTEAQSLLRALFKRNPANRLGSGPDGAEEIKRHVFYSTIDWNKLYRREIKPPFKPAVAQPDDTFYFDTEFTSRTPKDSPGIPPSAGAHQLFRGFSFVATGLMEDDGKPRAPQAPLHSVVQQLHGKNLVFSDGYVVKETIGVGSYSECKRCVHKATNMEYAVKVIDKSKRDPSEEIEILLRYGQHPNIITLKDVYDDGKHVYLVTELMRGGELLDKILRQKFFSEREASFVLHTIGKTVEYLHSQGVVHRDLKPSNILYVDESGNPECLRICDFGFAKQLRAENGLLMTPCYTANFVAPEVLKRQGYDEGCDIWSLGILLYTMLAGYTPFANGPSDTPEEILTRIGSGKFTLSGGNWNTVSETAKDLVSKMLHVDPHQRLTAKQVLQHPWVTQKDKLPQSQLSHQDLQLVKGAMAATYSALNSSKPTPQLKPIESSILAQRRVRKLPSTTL

PLK1 (human) = PLK1 (human) (UniProt P53350)
DCLK3 (human) = DCLK3 (human) (UniProt Q9C098)
SIK1 (human) = SIK1 (human) (UniProt P57059)
PTK2 (human) = PTK2 (human) (UniProt Q05397)
RIOK1 (human) = RIOK1 (human) (UniProt Q9BRS2)
SIK2 (human) = SIK2 (human) (UniProt Q9H0K1)
SIK2 (human), sequence (Q9H0K1 whole entry, looked up): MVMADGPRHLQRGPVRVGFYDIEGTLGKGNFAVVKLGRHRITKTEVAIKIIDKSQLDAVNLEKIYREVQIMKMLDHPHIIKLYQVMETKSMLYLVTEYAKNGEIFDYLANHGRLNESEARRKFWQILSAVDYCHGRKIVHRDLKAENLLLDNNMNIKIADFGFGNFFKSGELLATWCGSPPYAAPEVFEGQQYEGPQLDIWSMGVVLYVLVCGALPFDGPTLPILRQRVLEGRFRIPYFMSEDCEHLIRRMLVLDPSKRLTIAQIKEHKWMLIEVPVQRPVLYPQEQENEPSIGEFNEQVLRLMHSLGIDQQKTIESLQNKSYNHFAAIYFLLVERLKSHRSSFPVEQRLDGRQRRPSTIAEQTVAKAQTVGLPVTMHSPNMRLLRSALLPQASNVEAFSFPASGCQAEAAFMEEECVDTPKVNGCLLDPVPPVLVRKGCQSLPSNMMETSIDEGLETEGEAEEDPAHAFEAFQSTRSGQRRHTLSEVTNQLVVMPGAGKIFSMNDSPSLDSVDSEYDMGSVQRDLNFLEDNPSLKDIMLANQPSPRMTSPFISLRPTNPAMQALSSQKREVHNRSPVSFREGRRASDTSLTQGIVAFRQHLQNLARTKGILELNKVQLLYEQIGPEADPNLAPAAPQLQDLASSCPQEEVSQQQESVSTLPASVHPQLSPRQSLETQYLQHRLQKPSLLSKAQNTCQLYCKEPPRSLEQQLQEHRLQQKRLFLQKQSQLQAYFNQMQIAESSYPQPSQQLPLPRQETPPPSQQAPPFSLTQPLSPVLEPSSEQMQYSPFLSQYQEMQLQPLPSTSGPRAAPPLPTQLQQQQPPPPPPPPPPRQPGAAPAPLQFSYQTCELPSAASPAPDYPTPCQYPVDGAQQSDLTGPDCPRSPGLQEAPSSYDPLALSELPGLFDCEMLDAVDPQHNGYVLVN

ABL1 (human), P00519 [F317I], sequence (P00519 whole entry F317I, looked up): as the sequence (P00519 whole entry F317L, looked up) above, with L317I counted along it

COc1cc(N2CCN(C)CC2)ccc1Nc1ncc2c(n1)N(C1CCCC1)C(C)CC(=O)N2 (stereo not given)
kinase still bound, per cent of control (BMP2K (human)): 19% | kinase still bound, per cent of control (ULK2 (human)): 1.2% | kinase still bound, per cent of control [1]: 26% | kinase still bound, per cent of control (CHEK1 (human)): 14% | kinase still bound, per cent of control (NEK5 (human)): 30% | kinase still bound, per cent of control [2]: 29% | kinase still bound, per cent of control (FES (human)): 26% | kinase still bound, per cent of control (STK10 (human)): 10% | kinase still bound, per cent of control (FER (human)): 21% | kinase still bound, per cent of control (FRK (human)): 7% | kinase still bound, per cent of control (TNK2 (human)): 7.4% | kinase still bound, per cent of control (GAK (human)): 1% | kinase still bound, per cent of control [3]: 32% | kinase still bound, per cent of control (SLK (human)): 3.2% | kinase still bound, per cent of control (TTK (human)): 14% | kinase still bound, per cent of control (ULK1 (human)): 7.8% | kinase still bound, per cent of control [4]: 33% | kinase still bound, per cent of control [5]: 30% | kinase still bound, per cent of control (PIP4K2B (human)): 31% | kinase still bound, per cent of control (DAPK3 (human)): 13% | kinase still bound, per cent of control (PTK2B (human)): 13% | kinase still bound, per cent of control (STK33 (human)): 18% | kinase still bound, per cent of control [6]: 30% | kinase still bound, per cent of control (NEK9 (human)): 27% | kinase still bound, per cent of control (CAMKK2 (human)): 31% | kinase still bound, per cent of control (RPS6KA6 KD2 (human)): 4.7% | kinase still bound, per cent of control (MERTK (human)): 23% | kinase still bound, per cent of control (PLK3 (human)): 11% | kinase still bound, per cent of control (RPS6KA1 KD2 (human)): 22% | kinase still bound, per cent of control (PLK1 (human)): 2.1% | kinase still bound, per cent of control (DCLK3 (human)): 4% | kinase still bound, per cent of control (SIK1 (human)): 14% | kinase still bound, per cent of control (PTK2 (human)): 1.9% | kinase still bound, per cent of control (RIOK1 (human)): 32% | kinase still bound, per cent of control (SIK2 (human)): 26%
